A word on the EC50: it is the midpoint of the concentration-response curve.

The target of assay [1] is T1, Piezo1 (human cardiac fibroblasts, endogenous) (Homo sapiens, UniProt Q92508).
T1 construct: endogenous full-length channel in cultured human atrial cardiac fibroblasts; Yoda1 response reduced by Piezo1 siRNA
In words: Fura-2 intracellular Ca2+ assay, 96-well plate reader. Format: cell-based. The following applies: activator (agonist); native human cardiac fibroblasts; 2.5 mM probenecid, 1.5 mM CaCl2, pH 7.4; estimate, Yoda1 limited to 10 μM by solubility.

The target of the next assay is T2, mouse Piezo1 (Mus musculus, UniProt E2JF22).
T2 construct: the Dooku1 and ruthenium red rows are from native C57BL/6J cardiac fibroblasts
T2 sequence (E2JF22 whole entry): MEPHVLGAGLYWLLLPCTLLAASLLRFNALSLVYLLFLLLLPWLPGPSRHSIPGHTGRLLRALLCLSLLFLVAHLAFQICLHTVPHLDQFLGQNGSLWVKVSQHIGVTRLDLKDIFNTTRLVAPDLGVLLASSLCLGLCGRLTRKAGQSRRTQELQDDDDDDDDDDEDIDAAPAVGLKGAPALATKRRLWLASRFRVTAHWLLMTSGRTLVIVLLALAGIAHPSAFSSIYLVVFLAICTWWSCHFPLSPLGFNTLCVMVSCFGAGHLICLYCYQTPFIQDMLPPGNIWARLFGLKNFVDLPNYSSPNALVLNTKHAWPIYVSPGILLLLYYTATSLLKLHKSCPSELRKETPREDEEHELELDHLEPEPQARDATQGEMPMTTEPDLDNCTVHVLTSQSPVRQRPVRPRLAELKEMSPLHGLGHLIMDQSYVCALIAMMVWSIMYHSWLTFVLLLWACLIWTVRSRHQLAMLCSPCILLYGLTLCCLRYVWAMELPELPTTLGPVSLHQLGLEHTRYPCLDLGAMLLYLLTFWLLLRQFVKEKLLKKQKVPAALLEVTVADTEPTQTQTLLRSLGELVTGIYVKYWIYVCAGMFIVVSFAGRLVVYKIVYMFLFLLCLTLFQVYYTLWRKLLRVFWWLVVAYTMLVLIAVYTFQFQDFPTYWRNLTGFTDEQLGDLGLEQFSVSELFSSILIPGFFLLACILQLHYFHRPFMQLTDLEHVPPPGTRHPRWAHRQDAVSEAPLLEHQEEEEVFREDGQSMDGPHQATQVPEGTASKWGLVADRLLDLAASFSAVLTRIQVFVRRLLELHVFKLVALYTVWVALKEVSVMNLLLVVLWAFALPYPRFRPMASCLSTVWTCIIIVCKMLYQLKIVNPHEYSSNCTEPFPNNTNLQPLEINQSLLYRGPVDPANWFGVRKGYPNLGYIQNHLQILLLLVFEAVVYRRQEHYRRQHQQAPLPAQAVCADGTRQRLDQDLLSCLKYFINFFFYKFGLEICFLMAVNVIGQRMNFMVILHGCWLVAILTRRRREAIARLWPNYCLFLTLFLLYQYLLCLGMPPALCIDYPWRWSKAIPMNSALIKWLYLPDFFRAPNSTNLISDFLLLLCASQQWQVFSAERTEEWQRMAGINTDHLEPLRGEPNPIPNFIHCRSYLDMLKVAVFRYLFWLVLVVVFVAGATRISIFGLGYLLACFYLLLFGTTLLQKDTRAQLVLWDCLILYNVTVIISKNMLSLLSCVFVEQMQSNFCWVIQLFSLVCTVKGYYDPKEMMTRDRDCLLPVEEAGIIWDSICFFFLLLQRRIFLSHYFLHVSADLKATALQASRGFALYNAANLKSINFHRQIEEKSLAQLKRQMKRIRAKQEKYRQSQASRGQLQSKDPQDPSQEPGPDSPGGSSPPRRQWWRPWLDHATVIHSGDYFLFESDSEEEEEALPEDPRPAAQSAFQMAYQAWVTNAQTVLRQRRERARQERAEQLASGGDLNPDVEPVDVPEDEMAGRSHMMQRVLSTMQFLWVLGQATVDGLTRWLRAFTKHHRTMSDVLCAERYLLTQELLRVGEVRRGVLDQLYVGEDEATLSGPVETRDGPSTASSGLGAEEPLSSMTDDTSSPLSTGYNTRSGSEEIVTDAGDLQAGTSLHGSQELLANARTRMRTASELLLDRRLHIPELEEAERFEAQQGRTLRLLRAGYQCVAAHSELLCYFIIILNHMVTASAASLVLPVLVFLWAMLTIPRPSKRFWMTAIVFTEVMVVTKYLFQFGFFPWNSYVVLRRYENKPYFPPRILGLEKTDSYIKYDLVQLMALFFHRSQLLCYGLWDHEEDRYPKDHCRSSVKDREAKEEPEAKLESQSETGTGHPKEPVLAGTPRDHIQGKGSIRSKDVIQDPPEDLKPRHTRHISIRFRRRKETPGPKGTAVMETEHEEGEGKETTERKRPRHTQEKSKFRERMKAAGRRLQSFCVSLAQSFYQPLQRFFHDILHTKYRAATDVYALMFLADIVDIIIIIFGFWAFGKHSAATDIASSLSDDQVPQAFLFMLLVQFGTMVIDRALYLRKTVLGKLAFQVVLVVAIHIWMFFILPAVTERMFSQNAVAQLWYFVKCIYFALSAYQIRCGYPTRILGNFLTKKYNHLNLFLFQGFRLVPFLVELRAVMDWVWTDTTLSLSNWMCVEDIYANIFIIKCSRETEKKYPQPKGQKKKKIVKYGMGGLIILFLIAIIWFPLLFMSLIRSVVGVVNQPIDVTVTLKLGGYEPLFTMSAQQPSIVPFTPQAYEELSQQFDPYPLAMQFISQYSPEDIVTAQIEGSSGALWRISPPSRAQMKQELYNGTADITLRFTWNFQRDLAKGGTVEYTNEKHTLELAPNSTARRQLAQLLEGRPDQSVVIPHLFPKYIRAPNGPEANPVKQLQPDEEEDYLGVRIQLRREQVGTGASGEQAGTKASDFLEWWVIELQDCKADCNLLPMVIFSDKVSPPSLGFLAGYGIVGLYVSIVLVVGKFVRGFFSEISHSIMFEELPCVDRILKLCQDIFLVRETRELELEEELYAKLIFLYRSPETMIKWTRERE
The description is as above. Format: cell-based.

T1 sequence (Q92508 whole entry): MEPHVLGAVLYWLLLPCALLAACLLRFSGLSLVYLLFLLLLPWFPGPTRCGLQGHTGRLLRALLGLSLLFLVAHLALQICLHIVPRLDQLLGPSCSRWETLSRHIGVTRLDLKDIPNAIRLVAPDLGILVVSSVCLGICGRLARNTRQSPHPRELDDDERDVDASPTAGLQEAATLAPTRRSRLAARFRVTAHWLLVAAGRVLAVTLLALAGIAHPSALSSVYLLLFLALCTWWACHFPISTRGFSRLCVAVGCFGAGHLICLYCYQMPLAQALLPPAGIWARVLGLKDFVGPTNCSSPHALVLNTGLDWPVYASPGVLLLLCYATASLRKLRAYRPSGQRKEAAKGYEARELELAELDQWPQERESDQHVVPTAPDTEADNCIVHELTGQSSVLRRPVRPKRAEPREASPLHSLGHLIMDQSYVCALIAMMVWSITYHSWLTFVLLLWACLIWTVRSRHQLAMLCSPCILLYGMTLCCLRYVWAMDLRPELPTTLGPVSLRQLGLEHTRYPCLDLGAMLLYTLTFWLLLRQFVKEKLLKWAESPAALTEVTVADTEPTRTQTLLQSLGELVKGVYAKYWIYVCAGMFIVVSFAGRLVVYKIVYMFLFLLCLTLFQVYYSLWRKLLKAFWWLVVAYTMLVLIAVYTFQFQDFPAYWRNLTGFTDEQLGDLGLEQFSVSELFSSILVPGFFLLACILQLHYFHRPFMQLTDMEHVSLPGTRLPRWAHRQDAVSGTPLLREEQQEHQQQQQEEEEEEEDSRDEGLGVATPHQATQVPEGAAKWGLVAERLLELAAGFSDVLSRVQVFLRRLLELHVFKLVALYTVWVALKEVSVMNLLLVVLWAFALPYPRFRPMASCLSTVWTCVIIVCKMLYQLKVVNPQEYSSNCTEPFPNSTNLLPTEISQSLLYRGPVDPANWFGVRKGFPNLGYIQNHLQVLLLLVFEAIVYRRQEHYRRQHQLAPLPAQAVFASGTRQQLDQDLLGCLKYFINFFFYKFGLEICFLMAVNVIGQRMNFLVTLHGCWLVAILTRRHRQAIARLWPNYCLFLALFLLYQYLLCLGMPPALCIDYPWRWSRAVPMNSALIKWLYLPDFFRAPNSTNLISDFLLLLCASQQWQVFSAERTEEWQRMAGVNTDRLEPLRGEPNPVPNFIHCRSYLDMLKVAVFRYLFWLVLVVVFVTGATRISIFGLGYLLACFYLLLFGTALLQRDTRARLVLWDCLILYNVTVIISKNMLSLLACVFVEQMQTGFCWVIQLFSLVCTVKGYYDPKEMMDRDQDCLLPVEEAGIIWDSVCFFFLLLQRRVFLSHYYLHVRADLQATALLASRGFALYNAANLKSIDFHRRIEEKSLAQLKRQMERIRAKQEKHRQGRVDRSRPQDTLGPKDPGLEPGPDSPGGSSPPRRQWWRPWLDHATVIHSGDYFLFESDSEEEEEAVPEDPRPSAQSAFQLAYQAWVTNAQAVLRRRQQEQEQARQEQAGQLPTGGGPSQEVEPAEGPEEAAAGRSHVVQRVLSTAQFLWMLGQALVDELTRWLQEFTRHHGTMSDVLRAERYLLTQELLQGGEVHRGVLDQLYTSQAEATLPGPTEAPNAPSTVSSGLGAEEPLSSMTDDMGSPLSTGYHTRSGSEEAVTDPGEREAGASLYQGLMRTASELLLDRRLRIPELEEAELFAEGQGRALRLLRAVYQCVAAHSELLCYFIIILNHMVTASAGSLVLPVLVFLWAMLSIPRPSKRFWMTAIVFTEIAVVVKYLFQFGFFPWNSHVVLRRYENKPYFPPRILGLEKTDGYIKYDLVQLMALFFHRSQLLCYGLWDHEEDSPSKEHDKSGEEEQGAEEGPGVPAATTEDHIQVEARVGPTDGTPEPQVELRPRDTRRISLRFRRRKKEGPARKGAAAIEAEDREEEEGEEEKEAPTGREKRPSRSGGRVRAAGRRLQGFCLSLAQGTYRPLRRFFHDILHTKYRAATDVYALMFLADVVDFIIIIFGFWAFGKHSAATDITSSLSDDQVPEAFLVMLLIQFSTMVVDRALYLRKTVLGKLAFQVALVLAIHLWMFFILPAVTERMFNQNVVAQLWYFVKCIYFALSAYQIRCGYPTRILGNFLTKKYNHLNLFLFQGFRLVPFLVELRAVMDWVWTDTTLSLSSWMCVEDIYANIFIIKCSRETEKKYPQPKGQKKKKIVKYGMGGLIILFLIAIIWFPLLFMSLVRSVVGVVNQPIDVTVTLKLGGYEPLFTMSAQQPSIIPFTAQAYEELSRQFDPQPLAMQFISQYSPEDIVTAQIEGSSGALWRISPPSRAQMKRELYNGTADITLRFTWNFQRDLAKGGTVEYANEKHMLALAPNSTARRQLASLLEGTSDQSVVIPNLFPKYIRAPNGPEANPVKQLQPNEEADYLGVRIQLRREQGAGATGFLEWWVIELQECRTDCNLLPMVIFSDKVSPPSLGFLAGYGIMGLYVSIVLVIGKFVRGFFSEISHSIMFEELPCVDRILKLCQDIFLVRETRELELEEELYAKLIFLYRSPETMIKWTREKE

Consider `Clc1cccc(Cl)c1CSc1nnc(-c2cnccn2)s1` [Yoda1], for which the EC50 in assay [1] was 710 nM; at mouse Piezo1, 330 nM.

Source of the values: article PMC6873183, “Mechanically activated Piezo1 channels of cardiac fibroblasts stimulate p38 mitogen-activated protein kinase activity and interleukin-6 secretion” (The Journal of Biological Chemistry, 2019).
